Experimental data from publication PMC5430738, “Psiguajadials A–K: Unusual Psidium Meroterpenoids as Phosphodiesterase-4 Inhibitors from the Leaves of Psidium guajava” (Scientific Reports, 2017).

target: T1, PDE4D2 (Homo sapiens, UniProt Q08499); experiment: PDE4D2 enzymatic inhibition assay (3H-cAMP substrate); type: biochemical; details: human PDE4D2 catalytic domain, 25 °C, 15 min, read-out: IC50 against PDE4D2
T1 construct: human PDE4D2 (catalytic domain, residues 86 –413); made in house; host or cells: E. coli BL21 (Codonplus)
T1 sequence (Q08499 388-715): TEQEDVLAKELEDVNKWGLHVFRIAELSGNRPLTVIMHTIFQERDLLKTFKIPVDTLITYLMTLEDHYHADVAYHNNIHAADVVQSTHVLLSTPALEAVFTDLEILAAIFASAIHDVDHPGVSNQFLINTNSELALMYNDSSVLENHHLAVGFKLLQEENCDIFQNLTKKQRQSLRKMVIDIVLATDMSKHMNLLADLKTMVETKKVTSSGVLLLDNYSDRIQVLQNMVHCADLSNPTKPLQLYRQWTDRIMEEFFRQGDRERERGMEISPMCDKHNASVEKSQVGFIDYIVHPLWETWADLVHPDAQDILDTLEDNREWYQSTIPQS
From the text: The protocols for expression, purification, and enzymatic assays of PDE4D2 were similar to those we described previously. More details about the experimental procedures are provided in Supplementary S3.
S3. Experimental section Extraction and isolation and PDE4D assay
S3.1. Extraction and isolation […]
S3.2. Expression and purification of PDE4D2 prot ein
subcloned into the expression vector pET15b. All these resultant plasmids were transformed into E.
coli strain BL21 (Codonplus) for over expression. The E. coli cells carrying these plasmids were
grown in LB medium at 37 /g113C to OD600 = 0.7, and then 0.1 mM isopropyl
/g69-D-thiogalactop yranoside was added for further growth at 16 /g113C for 20–40 h. The recombinant
protein was purified by Ni-NTA column (Qiagen).
The enz ymatic activities of PDE4D cat al ytic domain and the inhibition of PDE4D by extracted
reactions were occured in mixture containing 50 mM Tris/HCl (pH 7.5), 10 mM MgCl2, 0.5 mM
DTT at room temperature (25 /g113C) for 15 min. The reactions were terminated by addition of 0.2 M
Zn S O 4 and Ba(OH)2. The reaction product 3H-AMP was precipitated out, while unreacted
3H-cAMP remained in the supernatant. The mechanism was illustrated as shown below (Scheme
S3.2). Radioactivity in the supernatant was measured in 2.5 mL Ultima Gold liquid scintillation
repeated at least three times. The IC 50 values were calculated by nonlinear regression. As a […]

| Compound | IC50 |
| --- | --- |
| CC1CCC2C(C3C4(C)CCC13Oc1c(C=O)c(O)c(C=O)c(O)c1C4c1ccccc1)C2(C)C (stereo not shown) [Compound 16, psiguadial A] | 7260 ± 410 nM |
| CC(C)C12CC3C(c4ccccc4)c4c(O)c(C=O)c(O)c(C=O)c4OC3(C)C1C2 (stereo not shown) [Compound 25, guajavadial A] | 2010 ± 70 nM |
| CC1(C)CC2C1CCC13CC2(C)CCC1C(c1ccccc1)c1c(O)c(C=O)c(O)c(C=O)c1O3 (stereo not shown) [Compound 6, Psiguajadial F] | 2630 ± 130 nM |
| CC(C)C1CCC(C)C2CCC3(C=C12)CC(c1ccccc1)c1c(O)c(C=O)c(O)c(C=O)c1O3 (stereo not shown) [Compound 22, Guajadial D] | 1930 ± 110 nM |
| CC(C)C1CCC(C)C23CCC4(CC(c5ccccc5)c5c(O)c(C=O)c(O)c(C=O)c5O4)C2C13 (stereo not shown) [Compound 1, Psiguajadial A] | 3110 ± 100 nM |
| C=C1CCC2C(c3ccccc3)c3c(O)c(C=O)c(O)c(C=O)c3OC2(C)CCC2C1CC2(C)C (stereo not shown) [Compound 18, psidial A] | 1600 ± 90 nM |
| CC(C)C12CCC3(CC(c4ccccc4)c4c(O)c(C=O)c(O)c(C=O)c4O3)C1C2 (stereo not shown) [Compound 26, guadial A] | 2700 ± 150 nM |
| CC1=CCCC2(C)C(c3ccccc3)c3c(O)c(C=O)c(O)c(C=O)c3OC2C2C(CC1)C2(C)C (stereo not shown) [Compound 13, psiguadial D] | 3420 ± 210 nM |
| CC1=CCC(C)(C)C=CCC2(C)Oc3c(C=O)c(O)c(C=O)c(O)c3C(c3ccccc3)C2CC1 (single isomer, unassigned; (-)) [Compound 14, (−)-guajadial B] | > 50000 nM |
| C=C1CCC2Cc3c(O)c(C=O)c(O)c(C(=O)c4ccccc4)c3OC2(C)CCC2C1CC2(C)C (stereo not shown) [Compound 4, Psiguajadial D] | 4140 ± 260 nM |
| C=C1CCC2C(c3ccccc3)c3c(O)c(C=O)c(O)c(C=O)c3OC2(C)CCC2C1CC2(C)C (stereo not shown) [Compound 20, psiguajadial L] | 1370 ± 70 nM |
| CC(C)C12CCC3(CC(c4ccccc4)c4c(O)c(C=O)c(O)c(C=O)c4O3)C1C2 (stereo not shown) [Compound 11, Psiguajadial K] | 3680 ± 270 nM |
| CC(C)C1CCC(C)C2CCC3(C=C12)CC(c1ccccc1)c1c(O)c(C=O)c(O)c(C=O)c1O3 (stereo not shown) [Compound 8, Psiguajadial H] | 1810 ± 90 nM |
| CC1=C2C3CC(C)(C(c4ccccc4)c4c(O)c(C=O)c(O)c(C=O)c4O3)C2C2C(CC1)C2(C)C (stereo not shown) [Compound 3, Psiguajadial C] | 4500 ± 280 nM |
| CC(C)C1CCC(C)C2CC3C(c4ccccc4)c4c(O)c(C=O)c(O)c(C=O)c4OC3(C)C=C12 (stereo not shown) [Compound 10, Psiguajadial J] | 2530 ± 330 nM |
| CC1=CCC(C)(C)C=CCC2(C)Oc3c(C=O)c(O)c(C=O)c(O)c3C(c3ccccc3)C2CC1 (single isomer, unassigned; (+)) [Compound 15, (+)-guajadial B] | > 50000 nM |
| CC(C)C1CCC(C)C2CC3C(c4ccccc4)c4c(O)c(C=O)c(O)c(C=O)c4OC3(C)C=C12 (stereo not shown) [Compound 23, Guajadial E] | 2730 ± 150 nM |
| C=C1CCC2Cc3c(O)c(C(=O)c4ccccc4)c(O)c(C=O)c3OC2(C)CCC2C1CC2(C)C (stereo not shown) [Compound 17, guapsidial A] | 5610 ± 510 nM |
| CC1=CCCC2(C)C(c3ccccc3)c3c(O)c(C=O)c(O)c(C=O)c3OC2C2C(CC1)C2(C)C (stereo not shown) [Compound 5, Psiguajadial E] | 3250 ± 200 nM |
| CC1(C)C2CC3C(c4ccccc4)c4c(O)c(C=O)c(O)c(C=O)c4OC3(C)C1C2 (stereo not shown) [Compound 27, guadial B] | > 50000 nM |
| CC(C)C1CCC(C)C23CC4C(c5ccccc5)c5c(O)c(C=O)c(O)c(C=O)c5OC4(C)C2C13 (stereo not shown) [Compound 2, Psiguajadial B] | 5030 ± 330 nM |
| CC(C)C1CCC(C)C2CC3C(c4ccccc4)c4c(O)c(C=O)c(O)c(C=O)c4OC3(C)C=C12 (stereo not shown) [Compound 24, Guajadial F] | 2670 ± 170 nM |
| CC(C)C1CCC(C)C2CCC3(C=C12)CC(c1ccccc1)c1c(O)c(C=O)c(O)c(C=O)c1O3 (stereo not shown) [Compound 21, Guajadial C] | 2280 ± 110 nM |
| CC1=CCCC2(C)Oc3c(C=O)c(O)c(C=O)c(O)c3C(c3ccccc3)C2C2C(CC1)C2(C)C (stereo not shown) [Compound 12, Guajavadial C] | 4330 ± 210 nM |
| C=C1CCC2C(c3ccccc3)c3c(O)c(C=O)c(O)c(C=O)c3OC2(C)CCC2C1CC2(C)C (stereo not shown) [Compound 19, guajadial] | 1620 ± 80 nM |
| C=C1CCC2C(c3ccccc3)c3c(O)c(C=O)c(O)c(C=O)c3OC2(C)CCC2C1CC2(C)C (stereo not shown) [Compound 7, Psiguajadial G] | 1340 ± 330 nM |
| CC1(C)C2CCC3(CC(c4ccccc4)c4c(O)c(C=O)c(O)c(C=O)c4O3)C1C2 (stereo not shown) [Compound 28, guadial C] | 17100 ± 960 nM |
| CC(C)C1CCC(C)C2CCC3(C=C12)CC(c1ccccc1)c1c(O)c(C=O)c(O)c(C=O)c1O3 (stereo not shown) [Compound 9, Psiguajadial I] | 2510 ± 170 nM |
